These results are taken from patent US9234848B2, “Compounds having chromophore and photoreactive groups” (CENTRE NATIONAL DE LA RECHERCHE SCIENTIFIQUE (C.N.R.S.), priority 2011, dated 2016).

Structures are written as SMILES.

The assay addresses T1, Halobacterium salinarum bacterio-rhodopsin (Halobacterium salinarum, UniProt P02945).
T1 construct: purchased SIGMA
T1 sequence (P02945 14-262): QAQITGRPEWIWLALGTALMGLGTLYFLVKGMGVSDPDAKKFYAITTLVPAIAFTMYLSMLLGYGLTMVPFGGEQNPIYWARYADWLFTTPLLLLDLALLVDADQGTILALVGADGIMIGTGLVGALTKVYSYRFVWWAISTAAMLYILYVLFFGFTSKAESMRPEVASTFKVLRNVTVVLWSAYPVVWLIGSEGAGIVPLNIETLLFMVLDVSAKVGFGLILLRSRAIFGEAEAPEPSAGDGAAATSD
Kind of assay: Photomarking of bacteriorhodopsin (covalent bridging after UV irradiation, fluorescence detected on gel). The format is biochemical. The note with it: compound in DPC micelles (1:50 molar), protein-compound molar ratio 1:5, 1 hour in darkness at 4° C., 45 s UV irradiation, gel read on Fluorimager with rhodamine filter. Here is the method:
• Reagents: • Dodecylphosphocholine (DPC) and Halobacterium salinarum bacterio-rhodopsin are from SIGMA. Egg yolk phosphatidylcholine (PC) and cholesterol (chol, 99% pure) are from Avanti Polar Lipids (Alabaster, USA). • Preparation of the Liposomes: • PC, chol and the lipid tool (12a-c) (molar ratio 65:30:5) dissolved in chloroform are mixed in a test tube. After evaporation of the solvent with heat (45 mins at 37° C.), the dry film is hydrated by adding 300 μl of PBS at pH 7.4 in order to obtain a final concentration of lipids of 5 mM. The mixture is stirred and the resulting suspension is heated to 37° C., and then cooled in liquid nitrogen 5 times, and then passed through an extruder equipped with two 100 nm filters (35 passages). • Fluorescence Spectroscopy: • The excitation and emission spectra of the probe compounds according to the invention, within liposomes are recorded at 32° C. on a TECAN Infinite M1000 spectrofluorimeter. The lipid composition of the liposomes is PC:chol:lipid-tool 65:30:5 (molar ratio). The <> control liposomes consist of PC:chol, and their residual fluorescence is subtracted from the measured fluorescence spectra. • Photomarking of Bacteriorhodopsin: • DPC is added to a compound as a solution in chloroform-methanol (2/1, v/v) in the compound/detergent proportion of 1:50 molar. After evaporation in a high vacuum for 2 hours, the dry lipid film is hydrated by adding 50 μL of distilled water and 50 μl of Tris-HCl pH 8.0. The bacterio-rhodopsin resuspended in distilled water, is incubated with the compounds according to invention in detergent micelles, in a protein-compound molar ratio of 1:5. […] After migration, the gel is first analyzed on a Fluorimager Typhoon 8600 equipped with a rhodamine filter, in order to detect fluorescence; the gel is then colored with Coomassie blue for viewing all the protein bands. […]
As for `CCCCCCc1ccc(C(=O)c2ccc(CCCCCC(=O)O)cc2)cc1` [1a, 6-(4-(4-n-hexylbenzoyl)phenyl)hexanoic acid], the “Intensity of the photomarking signal (arbitrary units - AU)” value worked out at 5 AU. Then `Cc1ccc(C(=O)c2ccc(CCCCCCCCCCC(=O)O)cc2)cc1` [1b], with 10 AU; and `CCCCCCCCCCc1ccc(C(=O)c2ccc(CC(=O)O)cc2)cc1` [1c, (4-(4-decylbenzoyl)phenyl)ethanoic acid], with 1 AU.
